Reference: ChEMBL document CHEMBL2390894, “Quantitative analysis of histone demethylase probes using fluorescence polarization” (J Med Chem, 2013)
Activity calls are given as the source filed them. The calls are words filed in the database; no cut-off is given here.

Key:
[1] = biological target: T1, Lysine-specific demethylase 6B (Homo sapiens, UniProt O15054); assay: Inhibition of recombinant 6xHis-tagged JMJD3 (unknown origin) expressed in Escherichia coli BL21
[2] = biological target: T2, Lysine-specific demethylase 4A (Homo sapiens, UniProt O75164); assay: Inhibition of JMJD2A (unknown origin)
T2 sequence (O75164 whole entry): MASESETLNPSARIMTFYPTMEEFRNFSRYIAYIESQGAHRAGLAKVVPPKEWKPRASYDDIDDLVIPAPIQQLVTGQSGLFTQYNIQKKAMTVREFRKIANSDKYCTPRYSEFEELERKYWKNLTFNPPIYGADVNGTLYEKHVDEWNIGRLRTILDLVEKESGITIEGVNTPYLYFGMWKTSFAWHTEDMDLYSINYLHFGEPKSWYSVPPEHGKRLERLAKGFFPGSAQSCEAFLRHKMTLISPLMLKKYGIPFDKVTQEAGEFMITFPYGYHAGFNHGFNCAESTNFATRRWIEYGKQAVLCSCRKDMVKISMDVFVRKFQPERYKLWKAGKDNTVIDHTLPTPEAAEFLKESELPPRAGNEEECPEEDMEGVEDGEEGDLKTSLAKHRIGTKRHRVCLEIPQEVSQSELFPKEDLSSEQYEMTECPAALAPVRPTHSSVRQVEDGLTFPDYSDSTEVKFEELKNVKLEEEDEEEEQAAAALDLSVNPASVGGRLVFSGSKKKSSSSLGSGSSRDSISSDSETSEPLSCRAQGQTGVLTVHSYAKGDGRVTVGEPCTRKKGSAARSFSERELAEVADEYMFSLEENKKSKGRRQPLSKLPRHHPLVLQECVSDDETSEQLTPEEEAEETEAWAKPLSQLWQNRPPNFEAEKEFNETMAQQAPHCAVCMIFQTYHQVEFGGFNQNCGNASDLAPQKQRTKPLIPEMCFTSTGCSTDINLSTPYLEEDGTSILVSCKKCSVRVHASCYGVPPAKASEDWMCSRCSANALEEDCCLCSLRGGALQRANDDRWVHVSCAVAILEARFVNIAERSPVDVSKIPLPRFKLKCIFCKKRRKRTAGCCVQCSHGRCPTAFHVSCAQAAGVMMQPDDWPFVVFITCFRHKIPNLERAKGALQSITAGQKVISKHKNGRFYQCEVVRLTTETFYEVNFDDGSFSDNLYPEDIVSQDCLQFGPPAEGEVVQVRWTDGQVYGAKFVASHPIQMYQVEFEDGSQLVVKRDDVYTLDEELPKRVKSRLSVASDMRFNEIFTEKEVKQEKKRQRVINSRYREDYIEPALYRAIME

[3] = biological target: T3, Lysine-specific demethylase 2A (Homo sapiens, UniProt Q9Y2K7); assay: Inhibition of recombinant 6xHis-tagged JHDM1A (unknown origin) expressed in Escherichia coli BL21 using SAPATGGVK(Me2)KPHRYRPGTVAL as substrate incubated for 15 mins prior to substrate addition measured after 50 mins by rapid fire mass spectrophotometric analysis
T3 sequence (Q9Y2K7 whole entry): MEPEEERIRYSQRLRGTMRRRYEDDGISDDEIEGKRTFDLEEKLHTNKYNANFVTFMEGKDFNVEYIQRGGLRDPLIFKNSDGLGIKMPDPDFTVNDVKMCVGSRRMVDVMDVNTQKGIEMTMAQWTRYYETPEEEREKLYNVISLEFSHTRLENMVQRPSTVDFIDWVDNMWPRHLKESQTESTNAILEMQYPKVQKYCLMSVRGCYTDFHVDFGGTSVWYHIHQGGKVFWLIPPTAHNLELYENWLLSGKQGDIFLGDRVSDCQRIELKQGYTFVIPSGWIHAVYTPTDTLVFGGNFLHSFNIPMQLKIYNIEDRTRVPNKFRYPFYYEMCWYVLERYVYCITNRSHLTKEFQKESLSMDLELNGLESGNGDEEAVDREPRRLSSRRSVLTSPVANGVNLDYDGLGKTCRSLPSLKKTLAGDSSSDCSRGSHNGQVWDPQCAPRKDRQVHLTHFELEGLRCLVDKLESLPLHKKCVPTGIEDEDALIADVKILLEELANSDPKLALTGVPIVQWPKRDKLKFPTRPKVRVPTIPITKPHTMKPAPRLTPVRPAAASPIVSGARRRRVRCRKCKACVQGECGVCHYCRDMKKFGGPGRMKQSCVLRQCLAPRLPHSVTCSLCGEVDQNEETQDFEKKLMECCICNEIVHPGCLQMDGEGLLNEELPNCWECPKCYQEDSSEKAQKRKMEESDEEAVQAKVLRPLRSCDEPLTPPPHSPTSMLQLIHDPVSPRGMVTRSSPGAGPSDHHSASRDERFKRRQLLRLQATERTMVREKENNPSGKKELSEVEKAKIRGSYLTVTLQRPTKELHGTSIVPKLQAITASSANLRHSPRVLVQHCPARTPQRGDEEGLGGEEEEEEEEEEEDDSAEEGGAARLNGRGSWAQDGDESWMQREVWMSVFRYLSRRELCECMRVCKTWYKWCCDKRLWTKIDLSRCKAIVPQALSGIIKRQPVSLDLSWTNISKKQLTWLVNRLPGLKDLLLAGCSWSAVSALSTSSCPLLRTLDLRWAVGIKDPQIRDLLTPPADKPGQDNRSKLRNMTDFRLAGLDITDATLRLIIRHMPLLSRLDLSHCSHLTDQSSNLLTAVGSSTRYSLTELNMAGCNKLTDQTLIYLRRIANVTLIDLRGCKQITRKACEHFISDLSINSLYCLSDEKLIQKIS

[4] = biological target: T4, Lysine-specific demethylase 4A (Homo sapiens) (UniProt O75164); assay: Binding affinity to JMJD2A (unknown origin) up to 10 uM by fluorescence polarization assay
T4 sequence (whole entry): T2 sequence (O75164 whole entry)

[5] = biological target: T3, Lysine-specific demethylase 2A; assay: Binding affinity to recombinant 6xHis-tagged JHDM1A (unknown origin) expressed in Escherichia coli BL21 by fluorescence polarization assay in presence of Fe2+ and sodium ascorbate
[6] = biological target: T3, Lysine-specific demethylase 2A; assay: Binding affinity to recombinant 6xHis-tagged JHDM1A (unknown origin) expressed in Escherichia coli BL21 by fluorescence polarization assay
[7] = biological target: T3, Lysine-specific demethylase 2A; assay: Binding affinity to recombinant 6xHis-tagged JHDM1A (unknown origin) expressed in Escherichia coli BL21 by fluorescence polarization assay in presence of Ni2+
[8] = biological target: T1, Lysine-specific demethylase 6B; assay: Binding affinity to recombinant 6xHis-tagged JMJD3 (unknown origin) expressed in Escherichia coli BL21 up to 10 uM by fluorescence polarization assay
[9] = biological target: T3, Lysine-specific demethylase 2A; assay: Binding affinity to recombinant 6xHis-tagged JHDM1A (unknown origin) expressed in Escherichia coli BL21 by fluorescence polarization assay in presence of Co2+

T1 sequence (O15054 whole entry): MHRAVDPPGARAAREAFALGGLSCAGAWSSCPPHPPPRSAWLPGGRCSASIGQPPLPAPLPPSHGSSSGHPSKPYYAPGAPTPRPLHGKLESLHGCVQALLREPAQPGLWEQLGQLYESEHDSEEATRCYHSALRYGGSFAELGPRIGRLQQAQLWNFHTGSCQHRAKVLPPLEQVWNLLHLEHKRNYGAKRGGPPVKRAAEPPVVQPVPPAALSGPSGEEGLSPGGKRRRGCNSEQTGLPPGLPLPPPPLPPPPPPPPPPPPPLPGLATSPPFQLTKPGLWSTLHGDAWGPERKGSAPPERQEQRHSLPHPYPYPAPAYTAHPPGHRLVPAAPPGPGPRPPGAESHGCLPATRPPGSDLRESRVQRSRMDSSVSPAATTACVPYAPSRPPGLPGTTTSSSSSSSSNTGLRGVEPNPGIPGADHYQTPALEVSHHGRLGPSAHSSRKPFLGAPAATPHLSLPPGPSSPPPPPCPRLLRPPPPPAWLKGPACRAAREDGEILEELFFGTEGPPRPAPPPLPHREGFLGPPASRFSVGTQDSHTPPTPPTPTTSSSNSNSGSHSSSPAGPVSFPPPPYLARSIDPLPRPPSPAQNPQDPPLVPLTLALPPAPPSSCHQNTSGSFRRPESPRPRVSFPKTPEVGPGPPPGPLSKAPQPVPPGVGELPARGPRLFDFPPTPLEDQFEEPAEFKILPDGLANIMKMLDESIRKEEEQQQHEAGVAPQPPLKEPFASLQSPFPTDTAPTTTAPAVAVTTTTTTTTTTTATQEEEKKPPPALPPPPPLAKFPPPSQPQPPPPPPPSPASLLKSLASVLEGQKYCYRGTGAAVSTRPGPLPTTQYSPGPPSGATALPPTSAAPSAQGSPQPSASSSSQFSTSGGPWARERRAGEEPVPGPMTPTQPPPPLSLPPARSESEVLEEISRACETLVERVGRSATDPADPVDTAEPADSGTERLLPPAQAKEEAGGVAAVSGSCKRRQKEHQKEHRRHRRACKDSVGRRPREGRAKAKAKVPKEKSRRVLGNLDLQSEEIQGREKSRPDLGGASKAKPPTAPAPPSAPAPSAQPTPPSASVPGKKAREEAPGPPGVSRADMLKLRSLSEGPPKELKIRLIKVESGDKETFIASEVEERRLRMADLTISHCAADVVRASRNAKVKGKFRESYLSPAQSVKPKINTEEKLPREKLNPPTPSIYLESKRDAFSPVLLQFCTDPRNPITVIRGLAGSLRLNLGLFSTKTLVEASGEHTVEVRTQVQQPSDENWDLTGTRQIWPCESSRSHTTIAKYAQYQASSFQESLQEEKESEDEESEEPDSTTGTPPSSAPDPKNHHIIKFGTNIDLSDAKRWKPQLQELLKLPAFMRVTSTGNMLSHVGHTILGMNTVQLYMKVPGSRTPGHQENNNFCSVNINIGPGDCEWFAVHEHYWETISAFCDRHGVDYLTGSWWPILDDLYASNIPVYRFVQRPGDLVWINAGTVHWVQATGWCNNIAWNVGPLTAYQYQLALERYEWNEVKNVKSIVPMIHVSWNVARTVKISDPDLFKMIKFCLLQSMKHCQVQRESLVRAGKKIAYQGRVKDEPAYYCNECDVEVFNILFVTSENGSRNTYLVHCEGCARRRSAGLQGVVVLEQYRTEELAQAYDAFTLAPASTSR

| IC50 [1] [nM] | IC50 [2] [nM] | IC50 [3] [nM] | Activity [4] | Kd [5] [nM] | Kd [6] [nM] | Kd [7] [nM] | Activity [8] | Kd [9] [nM] | Compound |
| --- | --- | --- | --- | --- | --- | --- | --- | --- | --- |
| 3100 | 3300 | – | – | – | – | – | – | – | O=C(O)/C=C/C(=O)N(O)CCCCNCc1ccc(COC(=O)Nc2cccc3ccccc23)cc1 |
| 9500 | 23500 | 900 | Active | 8.6 | 19 | 9.3 | Active | 22 | NCc1ccc(CN(CCCCN(O)C(=O)/C=C/C(=O)O)C(=S)Nc2ccc(-c3c4ccc(=O)cc-4oc4cc(O)ccc34)c(C(=O)O)c2)cc1 |
| 7300 | 2400 | 420 | – | – | – | – | – | – | NCc1ccc(CNCCCCN(O)C(=O)/C=C/C(=O)O)cc1 |
